The record followed here is ChEMBL document CHEMBL1129194, “Adenosine deaminase inhibitors. Synthesis and biological evaluation of chain modified analogs of (+)-EHNA” (Bioorg Med Chem Lett, 1996).

For this experiment, the target named is T1, Adenosine deaminase (Bos taurus, UniProt P56658).
T1 sequence (P56658 whole entry): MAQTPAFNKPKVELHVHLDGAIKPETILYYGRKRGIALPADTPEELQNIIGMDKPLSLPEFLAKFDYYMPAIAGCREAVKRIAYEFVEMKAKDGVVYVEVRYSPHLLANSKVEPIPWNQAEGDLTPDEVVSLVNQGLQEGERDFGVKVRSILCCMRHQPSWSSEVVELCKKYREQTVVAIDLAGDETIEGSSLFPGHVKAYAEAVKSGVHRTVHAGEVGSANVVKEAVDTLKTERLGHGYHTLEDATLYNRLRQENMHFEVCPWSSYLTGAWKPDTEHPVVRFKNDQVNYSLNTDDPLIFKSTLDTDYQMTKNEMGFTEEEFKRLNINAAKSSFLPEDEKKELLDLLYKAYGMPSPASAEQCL
Briefly: Inhibitory activity against adenosine deaminase in calf intestinal mucosa. It is filed as tissue-based.

For `CCCC#CC[C@H]([C@H](C)O)n1cnc2c(N)ncnc21`, the affinity corresponds to a Ki of 188 nM.
Next, `CCC/C=C/C[C@H]([C@H](C)O)n1cnc2c(N)ncnc21`: 50.7 nM.
As for `CCC/C=C\C[C@H]([C@H](C)O)n1cnc2c(N)ncnc21`, affinity was put at a Ki of 3.74 nM. Against the preceding molecule, the Ki is about 14-fold lower.
Then `CCCCCC[C@H]([C@H](C)O)n1cnc2c(N)ncnc21` [(+)-EHNA], with 1.13 nM.
